# Laboratory results published in patent publication US20070098781A1, “Modified release compositions for DPP-IV inhibitors” (priority 2005, published 2007).
# Read-outs that look alike come from different tables or passages of the source.
# Assays:
# [1] = Pharmacoscintigraphic evaluation of regional drug absorption: plasma pharmacokinetics after site-specific gastrointestinal delivery (Enterion capsule); type: in vivo, human; conditions: 400 mg, healthy volunteers; for AUC / Cmax: both sexes, human, plasma, oral; for AUC: read-out: Mean (SD) AUC; for Cmax: read-out: Mean (SD) Cmax
# Description: (§1) A pharmacoscintigraphic evaluation of the regional drug absorption and pharmacodynamics of (2S)-1-{[2-(5-Methyl-2-phenyl-oxazol-4-yl)-ethylamino]-acetyl}-pyrrolidine-2-carbonitrile mesylate in up to 9 healthy male or female volunteers following administration to four different sites of the gastrointestinal tract: stomach, proximal small bowel, ileum and ascending colon was carried out. The study was conducted as an open label, 4-way cross-over design consisting of 4 study periods of approximately 2-3 days duration, each separated by washout period of at least 4 days.
# (§2) During each study period, 400 mg (2S)-1-{[2-(5-Methyl-2-phenyl-oxazol-4-yl)-ethylamino]-acetyl}-pyrrolidine-2-carbonitrile mesylate was delivered to the appropriate gastrointestinal target using Enterion™ capsule technology. The capsule was administered with water containing a radiolabelled marker (^99mTc-DTPA) which was used to define the gastrointestinal anatomy and the movement of the capsule was followed by means of an ^111In marker within the device. The location of both radiolabels was monitored on images obtained from a dual wavelength gamma camera. Capsule activation and thereby drug release was achieved by applying an external signal. The release was planned to occur within 5 hours of the administration of a standardised low calorie meal.
# (§3) The pharmacokinetics of (2S)-1-{[2-(5-Methyl-2-phenyl-oxazol-4-yl)-ethylamino]-acetyl}-pyrrolidine-2-carbonitrile mesylate were determined after each administration by monitoring plasma concentrations of parent drug and metabolites. The pharmacodynamic response was assessed by measuring the concentrations of circulating markers (glucose, insulin, glucagon and GLP-1) for up to 4 hours following an oral glucose tolerance test (OGTT), which itself was carried out 2 hours after release of the drug substance. A control OGTT response (i.e. no drug treatment) was established for each subject before the first treatment period began.
# [2] = test system: circulating markers (glucose, insulin, glucagon and GLP-1); test: Pharmacodynamic response after site-specific delivery: circulating markers following an oral glucose tolerance test (OGTT); type: in vivo, human; conditions: healthy volunteers, 400 mg; for Mean Delta Blood Glucose AUEC / Mean Plasma GLP-1 AUEC / Mean Plasma Insulin AUEC: OGTT 2 h after release, baseline corrected
# Description: as §1, §2, §3
# [3] = Triple-cannulated cynomolgus monkey model: plasma PK after site-specific delivery; type: in vivo; conditions: 5 mg/kg; for AUC: plasma, 5 mg/kg in solution
# Description: (§4) A study was conducted in an in-house cynomolgus monkey model, in which permanent cannulae had been surgically attached to various sections of their intestine. This animal model allows compounds to be delivered to precise regions of the intestine in the intact animal in vivo. A single dose cross-over study was performed in three animals, where 5 mg/kg of (2S)-1-{[1,1-Dimethyl-3-(4-pyridin-3-yl-imidazol-1-yl)-propylamino]-acetyl}-pyrrolidine-2-carbonitrile was delivered (with sufficient wash out periods in between), in solution by gavage to the stomach or via the cannulae to the duodenum, the jejunum-ileum junction or the top of the ascending colon, respectively. An oral glucose challenge was performed in each animal for each treatment 2 hours post-dose of compound (plus a pre-study control). Full plasma PK and DPPIV inhibition profiles were obtained for each treatment. Blood glucose profiles were measured for 3 hours post-glucose challenge.
# blood glucose = test: Triple-cannulated cynomolgus monkey model: blood glucose after oral glucose challenge; type: in vivo; conditions: 5 mg/kg; for Mean Delta Glucose AUEC: oral glucose challenge 2 hours post-dose
# Description: as §4
# plasma DPPIV = test: Triple-cannulated cynomolgus monkey model: plasma DPPIV inhibition after site-specific delivery; type: in vivo; conditions: for Mean Plasma DPPIV Inhibition: 5 mg/kg in solution
# Description: as §4
# [4] = delivery to the ileum-jejenum junction or colon, versus other sites
# [5] = dosing region ascending colon (cannula)
# [6] = dosing region duodenum (cannula)
# [7] = dosing region ileum-jejunum junction (cannula)
structure (smiles),measurement,setting,value
CS(=O)(=O)O.Cc1oc(-c2ccccc2)nc1CCNCC(=O)N1CCC[C@H]1C#N [(2S)-1-{[2-(5-Methyl-2-phenyl-oxazol-4-yl)-ethylamino]-acetyl}-pyrrolidine-2-carbonitrile mesylate],AUC,[1]; dosing region colon,3540 ng·h/mL
same,Cmax,[1]; dosing region colon,736 ng/mL
same,AUC,[1]; dosing region duodenum,14200 ng·h/mL
same,Cmax,[1]; dosing region duodenum,7580 ng/mL
same,AUC,[1]; dosing region ileum,12300 ng·h/mL
same,Cmax,[1]; dosing region ileum,5420 ng/mL
same,AUC,[1]; dosing region stomach,12200 ng·h/mL
same,Cmax,[1]; dosing region stomach,5570 ng/mL
same,absorption and elimination rate (plasma profiles),[1]; all routes of administration except for the colon,broadly similar
same,period for which plasma concentrations were sustained,[1]; colon delivery,6-8 hours post dose
same,plasma concentrations,[1]; colon delivery versus other routes,substantially lower
same,Average exposure,[1]; delivery to the proximal small bowel (duodenum) versus other sites,slighter greater
same,Mean Delta Blood Glucose AUEC,[2]; dosing region PSB,130 % Control
same,Mean Plasma GLP-1 AUEC,[2]; dosing region PSB,180 % Control
same,Mean Plasma Insulin AUEC,[2]; dosing region PSB,160 % Control
same,Mean Delta Blood Glucose AUEC,[2]; dosing region colon,83 % Control
same,Mean Plasma GLP-1 AUEC,[2]; dosing region colon,87 % Control
same,Mean Plasma Insulin AUEC,[2]; dosing region colon,101 % Control
same,Mean Delta Blood Glucose AUEC,[2]; dosing region ileum,47 % Control
same,Mean Plasma GLP-1 AUEC,[2]; dosing region ileum,340 % Control
same,Mean Plasma Insulin AUEC,[2]; dosing region ileum,47 % Control
same,Mean Delta Blood Glucose AUEC,[2]; dosing region stomach,55 % Control
same,Mean Plasma GLP-1 AUEC,[2]; dosing region stomach,151 % Control
same,Mean Plasma Insulin AUEC,[2]; dosing region stomach,65 % Control
same,Mean blood glucose area under the effect curve (AUEC) following an OGTT vs control,[2]; both stomach and ileal delivery,substantially decreased
same,active glucagon-like peptide 1 (primary mechanistic biomarker),[2]; only ileal delivery,sustained systematic increase
"CC(C)(CCn1cnc(-c2cccnc2)c1)NCC(=O)N1CCC[C@H]1C#N [(2S)-1-{[1,1-Dimethyl-3-(4-pyridin-3-yl-imidazol-1-yl)-propylamino]-acetyl}-pyrrolidine-2-carbonitrile]",systemic exposure to the compound,[3]; [4],lowest systemic exposure
same,AUC,[3]; [5],354 ng·h/mL
same,AUC,[3]; [6],3890 ng·h/mL
same,AUC,[3]; [7],1350 ng·h/mL
same,AUC,"[3]; po, dosing region stomach (gavage)",2280 ng·h/mL
same,effect on glucose,blood glucose; [4],highest effect on glucose
same,blood glucose compared to control,"blood glucose; delivery to the stomach, ileum or the ascending colon",reduction in blood glucose
same,Mean Delta Glucose AUEC,blood glucose; dosing region ascending colon,52 % Control
same,Mean Delta Glucose AUEC,blood glucose; dosing region duodenum,116 % Control
same,Mean Delta Glucose AUEC,blood glucose; dosing region ileum-jejunum junction,76 % Control
same,Mean Delta Glucose AUEC,blood glucose; dosing region stomach,88 % Control
same,Mean Plasma DPPIV Inhibition,plasma DPPIV; [5],45 % baseline
same,Mean Plasma DPPIV Inhibition,plasma DPPIV; [6],60 % baseline
same,Mean Plasma DPPIV Inhibition,plasma DPPIV; [7],45 % baseline
same,Mean Plasma DPPIV Inhibition,plasma DPPIV; dosing region stomach (gavage),65 % baseline
same,average plasma DPPIV inhibition,"plasma DPPIV; 5 mg/kg, delivery to the ileum-jejenum junction or colon, versus other sites",lowest average plasma DPPIV inhibition
